Measurements from patent US11345678B2, “Benzopyrazole compound used as RHO kinase inhibitor” (MEDSHINE DISCOVERY INC., priority 2018, dated 2022).

Legend:
ROCK2 = ROCK2 (Homo sapiens (Human), UniProt O75116); assay: In vitro inhibitory activity against ROCK protein kinase (33P-ATP filter-binding), ROCK2; assay type: biochemical; conditions: 1 nM ROCK protein kinase, 20 μM Long S6 Kinase substrate peptide
Method: (§1) 1. In Vitro Evaluation of the Inhibitory Activity Against ROCK Protein Kinase
(§2) Experimental purpose: to detect the inhibitory IC50 value of the compound against ROCK protein kinase.
(§3) Assay buffer solution: 20 mM 4-hydroxyethylpiperazine ethanesulfonic acid (pH 7.5), 10 mM magnesium chloride, 1 mM ethylene glycol-bis-(2-aminoethyl)tetraacetic acid, 0.02% polyethylene glycol monododecyl ether, 0.02 mg/mL bovine serum albumin, 0.1 mM sodium vanadate, 2 mM dithiothreitol, 1% DMSO.
(§4) The freshly prepared buffer solution was added to ROCK protein kinase substrate (Long S6 Kinase substrate peptide), at a concentration of 20 μM, then 1 nM ROCK protein kinase was added thereto and stirred evenly. Echo550 was used to add a series of DMSO dilutions containing the test compound (starting from 10 μM, serially diluted by 3 times), the solution was pre-incubated at room temperature for 20 minutes, then ^33P-ATP (radiation intensity 10 μCi/μL) was added to initiate the reaction, and the reaction was performed at room temperature for two hours. Then the solution was filtered by P81 ion exchange paper (Whatman #3698-915) and washed with 0.75% phosphoric acid. The radiation intensity was determined by Filter-Binding method.
(§5) The protein kinase inhibitory activity of the compound was expressed as the remaining protein kinase activity relative to the blank substrate (simply DMSO). Prism software package (GraphPad Software, San Diego Calif., USA) was used to calculate IC50 value and the curve.

ROCK1 = ROCK1 (Homo sapiens (Human), UniProt Q13464); assay: In vitro inhibitory activity against ROCK protein kinase (33P-ATP filter-binding), ROCK1; assay type: biochemical; conditions: 1 nM ROCK protein kinase, 20 μM Long S6 Kinase substrate peptide
ROCK1, sequence (Q13464 whole entry): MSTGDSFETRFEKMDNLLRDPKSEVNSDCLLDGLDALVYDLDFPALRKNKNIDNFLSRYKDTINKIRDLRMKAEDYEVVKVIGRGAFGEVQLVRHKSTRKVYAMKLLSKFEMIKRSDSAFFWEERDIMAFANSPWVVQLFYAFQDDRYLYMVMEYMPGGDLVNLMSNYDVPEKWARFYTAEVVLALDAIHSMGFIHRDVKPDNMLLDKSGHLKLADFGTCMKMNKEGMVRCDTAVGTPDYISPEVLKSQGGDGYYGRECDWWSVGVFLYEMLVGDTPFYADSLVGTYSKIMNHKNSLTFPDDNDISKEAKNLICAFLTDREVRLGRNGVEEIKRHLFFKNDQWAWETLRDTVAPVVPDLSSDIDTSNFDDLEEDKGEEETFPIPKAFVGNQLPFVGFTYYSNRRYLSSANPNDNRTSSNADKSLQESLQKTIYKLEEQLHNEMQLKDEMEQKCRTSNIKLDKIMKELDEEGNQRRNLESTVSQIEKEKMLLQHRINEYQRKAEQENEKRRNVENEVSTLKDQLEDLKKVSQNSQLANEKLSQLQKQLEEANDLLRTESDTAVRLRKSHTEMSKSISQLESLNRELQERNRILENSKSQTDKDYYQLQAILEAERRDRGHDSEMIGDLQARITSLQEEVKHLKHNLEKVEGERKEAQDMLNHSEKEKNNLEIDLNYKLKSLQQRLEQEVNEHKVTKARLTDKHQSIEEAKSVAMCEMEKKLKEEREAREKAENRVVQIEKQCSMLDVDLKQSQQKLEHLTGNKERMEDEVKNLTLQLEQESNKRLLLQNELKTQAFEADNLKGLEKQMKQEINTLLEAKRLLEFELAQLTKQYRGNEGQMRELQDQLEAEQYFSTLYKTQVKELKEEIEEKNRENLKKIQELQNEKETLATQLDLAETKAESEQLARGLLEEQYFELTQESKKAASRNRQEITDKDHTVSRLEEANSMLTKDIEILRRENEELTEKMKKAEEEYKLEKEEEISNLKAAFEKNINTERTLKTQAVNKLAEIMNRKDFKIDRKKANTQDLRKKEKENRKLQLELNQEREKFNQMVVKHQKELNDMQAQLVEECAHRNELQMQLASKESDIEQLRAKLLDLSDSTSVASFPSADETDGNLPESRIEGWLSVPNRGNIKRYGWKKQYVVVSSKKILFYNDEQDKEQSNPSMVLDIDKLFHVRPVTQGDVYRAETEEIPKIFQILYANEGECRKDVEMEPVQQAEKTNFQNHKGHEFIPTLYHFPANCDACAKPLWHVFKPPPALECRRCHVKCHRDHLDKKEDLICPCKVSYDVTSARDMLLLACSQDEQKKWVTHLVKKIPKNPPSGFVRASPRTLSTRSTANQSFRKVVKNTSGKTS
Method: as §1, §2, §3, §4, §5

ROCK2, sequence (O75116 whole entry): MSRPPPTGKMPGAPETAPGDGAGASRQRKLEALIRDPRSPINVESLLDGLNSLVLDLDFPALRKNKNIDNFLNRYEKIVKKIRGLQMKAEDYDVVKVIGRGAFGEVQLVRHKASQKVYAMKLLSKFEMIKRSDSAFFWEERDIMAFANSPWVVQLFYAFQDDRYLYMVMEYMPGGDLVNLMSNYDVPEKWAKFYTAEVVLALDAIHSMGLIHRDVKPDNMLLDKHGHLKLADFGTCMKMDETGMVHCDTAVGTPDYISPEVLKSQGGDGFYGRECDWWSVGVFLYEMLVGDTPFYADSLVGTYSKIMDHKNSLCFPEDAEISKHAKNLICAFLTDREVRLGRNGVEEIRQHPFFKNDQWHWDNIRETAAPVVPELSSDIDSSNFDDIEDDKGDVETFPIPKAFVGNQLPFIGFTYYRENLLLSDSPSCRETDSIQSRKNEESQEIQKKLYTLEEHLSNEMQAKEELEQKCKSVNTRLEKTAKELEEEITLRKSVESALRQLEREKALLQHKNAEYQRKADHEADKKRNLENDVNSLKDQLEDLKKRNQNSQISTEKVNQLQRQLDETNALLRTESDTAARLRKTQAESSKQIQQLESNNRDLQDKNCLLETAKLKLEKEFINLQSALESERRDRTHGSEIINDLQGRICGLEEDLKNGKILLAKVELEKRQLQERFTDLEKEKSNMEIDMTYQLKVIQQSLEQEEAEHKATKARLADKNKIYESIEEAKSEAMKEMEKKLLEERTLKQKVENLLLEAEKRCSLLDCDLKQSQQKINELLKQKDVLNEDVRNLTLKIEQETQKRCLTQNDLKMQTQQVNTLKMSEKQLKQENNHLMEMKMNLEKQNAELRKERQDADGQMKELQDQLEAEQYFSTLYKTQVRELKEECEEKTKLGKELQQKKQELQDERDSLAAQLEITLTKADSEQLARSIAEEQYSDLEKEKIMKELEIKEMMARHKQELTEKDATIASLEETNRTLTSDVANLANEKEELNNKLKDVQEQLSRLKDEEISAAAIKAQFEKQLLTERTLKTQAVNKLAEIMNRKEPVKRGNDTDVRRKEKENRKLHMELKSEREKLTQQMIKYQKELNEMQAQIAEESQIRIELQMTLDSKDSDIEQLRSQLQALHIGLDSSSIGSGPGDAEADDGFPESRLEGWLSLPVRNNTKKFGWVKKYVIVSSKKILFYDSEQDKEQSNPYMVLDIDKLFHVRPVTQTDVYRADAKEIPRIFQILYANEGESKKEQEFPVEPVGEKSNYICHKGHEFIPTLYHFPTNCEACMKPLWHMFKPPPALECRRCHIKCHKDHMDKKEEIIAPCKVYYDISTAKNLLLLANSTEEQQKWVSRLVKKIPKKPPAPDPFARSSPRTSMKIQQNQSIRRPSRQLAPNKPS

IC50 (ROCK2) [nM] | IC50 (ROCK1) [nM] | Compound
21 | 1640 | COc1cccc(C(CCO)NC(=O)c2ccnc(-c3ccc4[nH]ncc4c3)c2)c1 (stereo not drawn) [Compound 1]
< 1 | 79 | COc1cccc(C(CCO)NC(=O)c2cccc(-c3ccc4[nH]ncc4c3)c2)c1 (stereo not drawn) [Compound 2]
11 | 765 | COc1cccc(C(CCO)NC(=O)c2cncc(-c3ccc4[nH]ncc4c3)c2)c1 (stereo not drawn) [Compound 3]
6 | 288 | COc1cccc(C(CCO)NC(=O)c2cc(-c3ccc4[nH]ncc4c3)ccn2)c1 (stereo not drawn) [Compound 4]
6 | 33 | COc1cccc(C(CO)NC(=O)c2cccc(-c3ccc4[nH]ncc4c3)c2)c1 (stereo not drawn) [Compound 5]
7 | 63 | O=C(NC(CCO)c1cccc(F)c1)c1cccc(-c2ccc3[nH]ncc3c2)c1 (stereo not drawn) [Compound 6]
4 | 24 | COc1cccc(C(CCN)NC(=O)c2cccc(-c3ccc4[nH]ncc4c3)c2)c1 (stereo not drawn) [Compound 7]
10 | 166 | COc1cccc(C(CCN(C)C)NC(=O)c2cccc(-c3ccc4[nH]ncc4c3)c2)c1 (stereo not drawn) [Compound 8]
4 | 25 | COc1cccc(C(CN)NC(=O)c2cccc(-c3ccc4[nH]ncc4c3)c2)c1 (stereo not drawn) [Compound 9]
6 | 79 | COc1cccc(C(CN(C)C)NC(=O)c2cccc(-c3ccc4[nH]ncc4c3)c2)c1 (stereo not drawn) [Compound 10]
5 | 79 | COc1cccc(C(CO)NC(=O)c2ccc(F)c(-c3ccc4[nH]ncc4c3)c2)c1 (stereo not drawn) [Compound 11]
12 | 257 | COc1cccc(C(CO)NC(=O)c2cc(F)cc(-c3ccc4[nH]ncc4c3)c2)c1 (stereo not drawn) [Compound 12]
16 | 139 | O=C(NC(CCO)c1cccc(Cl)c1)c1cccc(-c2ccc3[nH]ncc3c2)c1 (stereo not drawn) [Compound 13]
8 | 103 | COc1cccc(C(CN2CCCC2)NC(=O)c2cccc(-c3ccc4[nH]ncc4c3)c2)c1 (stereo not drawn) [Compound 14]
12 | 278 | COc1cccc(C(CO)NC(=O)c2cc(-c3ccc4[nH]ncc4c3)ccc2F)c1 (stereo not drawn) [Compound 15]
26 | 259 | O=C(NC(CO)c1cc(F)ccc1F)c1cccc(-c2ccc3[nH]ncc3c2)c1 (stereo not drawn) [Compound 16]
23 |  | O=C(NC(CO)c1cc(F)cc(F)c1)c1cccc(-c2ccc3[nH]ncc3c2)c1 (stereo not drawn) [Compound 17]
29 |  | O=C(NC(CO)c1ccc(F)c(F)c1)c1cccc(-c2ccc3[nH]ncc3c2)c1 (stereo not drawn) [Compound 18]
35 | 735 | O=C(NC(CO)c1cccc(F)c1F)c1cccc(-c2ccc3[nH]ncc3c2)c1 (stereo not drawn) [Compound 19]
35 | 304 | O=C(NC(CCO)c1ccccc1F)c1cccc(-c2ccc3[nH]ncc3c2)c1 (stereo not drawn) [Compound 20]
3 |  | COc1cccc(CNC(=O)c2cccc(-c3ccc4[nH]ncc4c3)c2)c1 [Compound 21]

IC50 (ROCK2) [nM] | IC50 (ROCK1) [nM] | Compound
6 | 52 | O=C(NC(CO)c1cccc(F)c1)c1cccc(-c2ccc3[nH]ncc3c2)c1 (stereo not drawn) [Compound 22]
7 | 29 | NCC(NC(=O)c1cccc(-c2ccc3[nH]ncc3c2)c1)c1cccc(F)c1 (stereo not drawn) [Compound 23]
14 | 126 | O=C(NC(CN1CCCC1)c1cccc(F)c1)c1cccc(-c2ccc3[nH]ncc3c2)c1 (stereo not drawn) [Compound 24]
30 | 407 | COc1cccc(C(CO)NC(=O)c2cccc(-c3ccc4[nH]nc(N)c4c3)c2)c1 (stereo not drawn) [Compound 27]
13 | 43 | COc1cccc(C(CN)NC(=O)c2cccc(-c3ccc4[nH]nc(F)c4c3)c2)c1 (stereo not drawn) [Compound 28]
7 | 65 | COc1cccc(C(CN)NC(=O)c2cccc(-c3ccc4[nH]nc(N)c4c3)c2)c1 (stereo not drawn) [Compound 29]
3 | 43 | COc1cccc(C(CN)NC(=O)c2cccc(-c3ccc4[nH]nc(C)c4c3)c2)c1 (stereo not drawn) [Compound 30]
20 | 223 | COCCC(NC(=O)c1cccc(-c2ccc3[nH]ncc3c2)c1)c1cccc(OC)c1 (stereo not drawn) [Compound 31]
23 | 343 | COc1cccc(C(CN2CCNCC2)NC(=O)c2cccc(-c3ccc4[nH]ncc4c3)c2)c1 (stereo not drawn) [Compound 32]
16 |  | COc1cccc(C(CN)NC(=O)c2cc(-c3ccc4[nH]nc(C)c4c3)cc3c2CNC3)c1 (stereo not drawn) [Compound 33]
17 | 1430 | COc1cccc(C(CN)NC(=O)c2cc(-c3ccc4[nH]nc(C)c4c3)cc3cccnc23)c1 (stereo not drawn) [Compound 34]
7 | 290 | COc1cccc(C(CN2CCCC2)NC(=O)c2cccc(-c3ccc4[nH]nc(C)c4c3)c2)c1 (stereo not drawn) [Compound 37]
14 | 75 | COc1cccc(C(CNC(C)C)NC(=O)c2cccc(-c3ccc4[nH]nc(C)c4c3)c2)c1 (stereo not drawn) [Compound 38]
15 | 429 | COc1cccc(C(CN)NC(=O)c2cc(CN3CCCC3)cc(-c3ccc4[nH]nc(C)c4c3)c2)c1 (stereo not drawn) [Compound 39]
21 |  | NCC(NC(=O)c1cccc(-c2ccc3[nH]nc(F)c3c2)c1)c1cccc(F)c1 (stereo not drawn) [Compound 41]
4 |  | Cc1n[nH]c2ccc(-c3cccc(C(=O)NC(CN)c4cccc(F)c4)c3)cc12 (stereo not drawn) [Compound 42]
6 | 153 | Cc1n[nH]c2ccc(-c3cccc(C(=O)NC(CN)c4cccc(Cl)c4)c3)cc12 (stereo not drawn) [Compound 43]
4 | 106 | COc1cccc(C2(NC(=O)c3cccc(-c4ccc5[nH]nc(C)c5c4)c3)CCNC2)c1 (stereo not drawn) [Compound 44]
19 | 1270 | COc1cccc(C2(NC(=O)c3cccc(-c4ccc5[nH]nc(F)c5c4)c3)CCNC2)c1 (stereo not drawn) [Compound 45]
8 | 267 | COc1cccc(C2(NC(=O)c3cc(-c4ccc5[nH]nc(C)c5c4)ccn3)CCNC2)c1 (stereo not drawn) [Compound 46]
12 | 67 | COc1cccc(C(CN)NC(=O)c2cc(-c3ccc4[nH]nc(C)c4c3)ccc2OC(F)F)c1 (stereo not drawn) [Compound 47]

IC50 (ROCK2) [nM] | IC50 (ROCK1) [nM] | Compound
9 | 84 | COc1cccc(C(CN)NC(=O)c2cc(-c3ccc4[nH]nc(F)c4c3)ccc2OC(F)F)c1 (stereo not drawn) [Compound 48]
5 | 56 | COc1cccc(C(CN)NC(=O)c2cc(-c3ccc4[nH]nc(C)c4c3)ccc2OC)c1 (stereo not drawn) [Compound 50]
7 | 50 | COc1cccc(C(CN)NC(=O)c2cc(-c3ccc4[nH]nc(F)c4c3)ccc2OC)c1 (stereo not drawn) [Compound 51]
10 | 182 | COc1cc(C(=O)NC(CN)c2cccc(OC)c2)cc(-c2ccc3[nH]nc(C)c3c2)c1 (stereo not drawn) [Compound 52]
20 | 1090 | COc1cc(C(=O)NC(CN)c2cccc(OC)c2)cc(-c2ccc3[nH]nc(F)c3c2)c1 (stereo not drawn) [Compound 53]
21 | 180 | COc1cccc(C(CN)NC(=O)c2cccc(-c3ccc4[nH]nc(F)c4c3)c2)c1 (stereo not drawn) [Compound 54]
51 | 4120 | COc1cccc(C(CN2CCNCC2)NC(=O)c2cccc(-c3ccc4[nH]nc(F)c4c3)c2)c1 (stereo not drawn) [Compound 55]
44 | 2300 | COc1cccc(C(CN2CCNCC2)NC(=O)c2cccc(-c3ccc4[nH]nc(C)c4c3)c2)c1 (stereo not drawn) [Compound 56]
58 | 1260 | COc1cccc(C(CN)NC(=O)c2cc(C#N)cc(-c3ccc4[nH]nc(C)c4c3)c2)c1 (stereo not drawn) [Compound 57]
48 | 1610 | COc1cccc(C(CN)NC(=O)c2cc(CN3CCCC3)cc(-c3ccc4[nH]nc(F)c4c3)c2)c1 (stereo not drawn) [Compound 58]
16 | 94 | Cc1n[nH]c2ccc(-c3cccc(C(=O)NC(CO)c4cccc(F)c4)c3)cc12 (stereo not drawn) [Compound 59]
44 | 215 | O=C(NC(CO)c1cccc(F)c1)c1cccc(-c2ccc3[nH]nc(F)c3c2)c1 (stereo not drawn) [Compound 60]
48 | 289 | NCC(NC(=O)c1cccc(-c2ccc3[nH]nc(F)c3c2)c1)c1cccc(F)c1F (stereo not drawn) [Compound 62]
35 |  | Cc1n[nH]c2ccc(-c3cccc(C(=O)NC(CN)c4cccc(OC5CC5)c4)c3)cc12 (stereo not drawn) [Compound 63]
4 | 138 | CNCC(NC(=O)c1cccc(-c2ccc3[nH]nc(C)c3c2)c1)c1cccc(OC)c1 (stereo not drawn) [Compound 65]
22 | 336 | Cc1cccc(C(CN)NC(=O)c2cc(-c3ccc4[nH]nc(C)c4c3)ccn2)c1 (stereo not drawn) [Compound 67]
8 |  | COc1cccc(C(CN)NC(=O)c2cccc(-c3ccc4[nH]nc(C5CC5)c4c3)c2)c1 (stereo not drawn) [Compound 68]
12 |  | COc1cccc(C(CN)NC(=O)c2cc(-c3ccc4[nH]nc(C)c4c3)ncn2)c1 (stereo not drawn) [Compound 69]
24 |  | COc1cccc(C(CNC(C)C)NC(=O)c2cc(-c3ccc4[nH]nc(C)c4c3)ccn2)c1 (stereo not drawn) [Compound 70]
9 | 758 | COc1cccc(C(CN)NC(=O)c2cccc(-c3cc(OC)c4[nH]ncc4c3)c2)c1 (stereo not drawn) [Compound 71]
